Measured values reported in PMC12980303, “Development of a novel risk score reflecting the relative harm potential of synthetic cannabinoids based on prevalence estimates, well‐documented intoxication cases and basic pharmacological data” (Addiction (Abingdon, England), 2025).
Where two headings read alike, the source gives them in different places. Marks after values point to notes of the source that are not given here.

How the values were obtained:
[1] = LC–MS/MS analysis of serum and urine samples of intoxication cases; type: in vivo, human; details: patient serum
Experimental: (§1) The data on intoxication cases used for the development of this risk score were obtained from a prospective study. This study included patients who were treated in an emergency department room following the consumption of an NPS. Clinical symptoms and follow‐up information were documented using a structured questionnaire completed by the attending physicians. The methodology has been previously published. Residual serum (obtained from venous blood) and urine samples, accompanied by the completed questionnaires, were sent to the Poisons Information Center Freiburg for further analysis. The toxicological analyses of serum and urine samples were conducted at the Institute of Forensic Medicine Freiburg. No data was available on previous consumption patterns or potential development of tolerance after continued misuse. The study was conducted in accordance with the Declaration of Helsinki and approved by the regional ethics committee of the University of Freiburg (no. 235/13_130683). The intoxication cases included in this study are those in which SCRA use was confirmed by liquid chromatography tandem mass spectrometry (LC–MS/MS).
Serum/blood and urine analyses were conducted at the Institute of Forensic Medicine Freiburg using previously published LC–MS/MS methods, that were modified by adding further analytes present in ‘legal‐high’ products (‘herbal blends’, ‘C‐liquids’ or ‘research chemicals’), and covered approximately 100 different SCRAs. Detailed information can be found in the Supporting Information.
Urine samples were analysed according to previously published and validated method by Franz et al.^2. For sample preparation 0.5 mL of phosphate buffer (pH 6) and 30 μL of β-glucuronidase were added to 0.5 mL of urine. Incubation was for 60 min at 45°C. This was followed by protein precipitation using 1.5 mL acetonitrile containing the internal standard (c = 2 ng/mL) and 0.56 mL 10 M ammonium formate solution, followed by shaking and centrifugation. 1 mL of the organic phase was transferred into an autosampler vial and evaporated to dryness under N2. The samples were reconstituted in 200 μL mobile phase.
Urine sample analysis was performed on a Dionex UltiMate® 3000RS UHPLC (Thermo Scientific, Dreieich, Germany) coupled to an API 5000^TM triple quadrupole instrument with a TurboIonSpray® interface (Sciex, Darmstadt, Germany). Separation was performed on a Luna C18 100 Å (150 x 2 mm, 5 μm) column with the mobile phase consisting of 0.2% HCOOH and 2 mmol/L NH^4+HCOO^− in water (A) and acetonitrile (B).

[2] = target: T1, hCB1 receptor (Homo sapiens, UniProt P21554); assay: competitive [3H]CP‐55940 radioligand binding assay (hCB1 receptor affinity); details: Ki [nM] (95% CI), [3H]CP‐55940 competition, hCB1 membrane preparations (HEK293‐EBNA), Cheng–Prusoff; 95% CI in brackets
Experimental: (§2) Receptor assays were performed on three different days and each concentration was tested in duplicate.
From the IC50, the respective Ki values were calculated using the Cheng–Prusoff equation [39].

[3] = target: T1, hCB1 receptor; assay: functional [35S]GTPγS hCB1 activation assay; type: biochemical
Experimental: as §2

[4] = risk score from prevalence in routine forensic samples and intoxication cases (G1, PSS, TSS); design: species or system human
Description: Therefore, higher values indicate substances with a higher risk. […] To take into account the severity of symptoms and the contribution of the specific NPS, two further summands were introduced. The first is based on the PSS, the second on the TSS. Again, higher values were associated with more severe symptoms and a stronger role of the NPS in causing the symptoms.
The risk score is composed of three components (parts G1, G2 and G3) and was designed as follows: (1) Gx=G1x+G2x+G3x,
Equation 2 takes into consideration several components: the number of intoxications with SCRA x in quarter k over the total number of intoxications of all investigated SCRAs in the same quarter; the number of serum/blood samples positive for SCRA x over the total number of serum/blood samples positive for all SCRAs plus the number of urine samples positive for SCRA x over the total number of urine samples positive for all SCRAs (this is divided by two to account for the two different sample types); and the number of quarters in which the SCRA x was prevalent. (2) G1x=∑k=1gak/bk/ck/dk+ek/fk/2/h+i
Consequently, equation 2 was mathematically rearranged. To further simplify the equation and reduce the formula signs, in equation 3 the following simplifications were taken: a/b=ai , c/d=as and e/f=au .
The sum of these quotients was divided by the number of all prevalent quarters (q p ). Prevalent quarters were defined as quarters in which on average the substance was detected in more than 5% of the positive serum and urine samples. If a poisoning occurred in a quarter in which the substance was not prevalent, the number of these quarters was added (q i ). This part of the score has similarities with an OR [42]. If the proportion of routine samples in a given quarter in which an intoxication with the respective substance occurred was zero (a s + a u = 0), a value of 0.01 was used for that quarter in the calculation of the quotient to avoid division by zero.
For part G2, the severity of the intoxication caused by the respective SCRA x was assessed on the basis of reported symptoms and follow‐up information using the PSS [20]. The PSS classifies the intoxication severity into five levels: (0) no, (1) mild, (2) moderate, (3) severe, and (4) fatal intoxication. […] For this purpose, the mean value of the PSS of all intoxications with the respective SCRA x was calculated ( G2x) .
For part G3, the involvement of the SCRA in the respective intoxications was assessed. This was evaluated on the basis of the TSS [21]. Elliott et al. developed the TSS to assess and classify the contribution of NPS in fatalities. In the present study, the TSS was determined to weigh the involvement of the investigated SCRA in the intoxication and the contribution of the SCRA to the observed symptoms. To determine the TSS value, factors such as the determined concentration of the SCRA, the presence of other recreational drugs or medicinal drugs, the general health of the patient and the consumption circumstances need to be considered. […] In cases with more than one drug detected, a TSS of 3 was only assigned where other compounds were present at concentrations below the range in which relevant effects are to be expected.
For the risk score, the mean value of the TSS of all intoxications with substance x was calculated ( G3x) . Analogous to the value of G2x , the value of G3x can theoretically be between 1 and 3. With a value of ‘1’, substance x was not mainly responsible for the symptoms in all of the intoxications (low level of significance), and with a value of ‘3’, it was the main cause in every poisoning in which it was detected.

[5] = occurrence of SCRAs in intoxication samples of the prospective study; design: species or system human; details: 2013 to 2021
Description: For this study, the 10 SCRAs (AB‐[…], ADB‐[…], AB‐FUBINACA, FUB‐AMB, Cumyl‐PEGACLONE, MDMB‐4en‐PINACA, MDMB‐CHMICA, 5F‐MDMB‐PICA, 5F‐ADB and 5F‐PB‐22) which were most frequently detected in intoxications in a prospective observational study during the time period of 2013 to 2021 were selected (see Table 1). Additionally, JWH‐210, a model compound representative of the early SCRAs, along with two substances prevalent in screenings during years 2019/2020 (5F‐Cumyl‐PEGACLONE and 4F‐MDMB‐BICA), were included in this study (see Tables S2–S7). […] JWH‐018 was also included as a reference compound because of its historical use in this capacity. Including both reference compounds facilitates direct comparison with previously published data, thereby enhancing the relevance and interpretability of the results obtained in the present study. Information on the origin of the test and reference compounds and all chemicals used in this study can be found in Table S1.
as §1

[6] = target: T1, hCB1 receptor; details: ref Wouters et al. [31], cited from earlier work
[7] = target: T1, hCB1 receptor; design: method as in Gamage et al. [40]; details: cited from earlier work
[8] = intoxication case B (AB‐CHMINACA)

T1 sequence (P21554 whole entry): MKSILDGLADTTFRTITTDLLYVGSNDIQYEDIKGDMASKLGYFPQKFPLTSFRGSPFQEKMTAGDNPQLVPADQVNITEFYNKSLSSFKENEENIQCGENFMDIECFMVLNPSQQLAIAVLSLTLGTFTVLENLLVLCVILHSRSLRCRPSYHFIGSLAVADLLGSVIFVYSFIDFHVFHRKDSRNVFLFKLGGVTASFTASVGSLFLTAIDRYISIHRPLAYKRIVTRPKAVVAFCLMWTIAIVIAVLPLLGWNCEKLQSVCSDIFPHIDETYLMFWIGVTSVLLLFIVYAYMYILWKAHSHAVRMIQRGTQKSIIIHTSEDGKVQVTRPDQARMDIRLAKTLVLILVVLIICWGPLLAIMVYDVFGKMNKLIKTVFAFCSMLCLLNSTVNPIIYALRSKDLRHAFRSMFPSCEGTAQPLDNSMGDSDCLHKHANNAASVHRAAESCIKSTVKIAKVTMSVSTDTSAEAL

Question: Which results are given for `CNC(C)C(=O)c1cccc(C)c1` (stereo not shown) [3‐MMC]?
Answer: Concentration in serum ([1]; intoxication case A (AB‐CHMINACA)): 320 ng/mL; Concentration in serum ([1]; intoxication case A (AB‐CHMINACA), listed as 3-MMC): ~3-MMC approximately 320 ng/mL

Question: With `O=C(NC12CC3CC(CC(C3)C1)C2)c1nn(CCCCCF)c2ccccc12` [5F-AKB-48] as the compound, how does the Concentration in serum [1, 8] read?
Answer: Its Concentration in serum is under 0.1 ng/mL.

Question: With `O=C(Oc1cccc2cccnc12)c1cn(CCCCCF)c2ccccc12` [5F‐PB‐22] as the compound, how does the Ki [2] read?
Answer: Its Ki is 0.0996 nM.

Question: What about the EC50 [3] of the same compound?
Answer: The EC50 was 2.73 nM.

Question: And the Emax ([3]; read-out: [35S]‐GTPγS assay Emax [%] (95% CI))?
Answer: Its Emax is 124%.

Question: What about the “G total (risk score)” value ([4]; G1+G2+G3, higher value = greater toxicological risk) of the same compound?
Answer: Its value is 9.9.

Question: What about the G2 ([4]; mean Poison Severity Score (PSS) of all intoxications with the SCRA) of the same compound?
Answer: Its G2 is 1.9.

Question: What about the G3 ([4]; mean Toxicological Significance Score (TSS) of all intoxications with the SCRA) of the same compound?
Answer: Its G3 is 2.7.

Question: And the G1 ([4]; proportion in intoxication cases relative to prevalence in routine serum/blood and urine samples per quarter, 2013–2021, >1 over‐represented in intoxications)?
Answer: The G1 was 5.3.

Question: What about the No. of intoxications ([5]; 139 intoxication samples of the prospective study) of the same compound?
Answer: The No. of intoxications was 13.

Question: And the Percentage in % ([5]; proportion of 139 intoxications in which the substance was detected)?
Answer: Its Percentage in % is 9.4%.

Question: And the Concentration in serum [1, 8]?
Answer: Its Concentration in serum is about 1.5 ng/mL.

Question: What about the EC50 ([6]; read-out: βarr2 assay EC50 [nM] (95% CI)) of the same compound?
Answer: Its EC50 is 0.32 nM.

Question: What about the “βarr2 assay Emax [%] (95% CI)” value ([6]; relative to CP‐55940) of the same compound?
Answer: The value was 980.2 ^d (888.2–1072) %.

Question: Which EC50 ([7]; read-out: [35S]‐GTPγS assay EC50 [nM] (95% CI), ref Gamage et al. [40]) does the source give for `COC(=O)C(NC(=O)c1nn(Cc2ccc(F)cc2)c2ccccc12)C(C)C` (stereo not shown) [FUB‐AMB] here?
Answer: Its EC50 is 0.543 nM.

Question: And the “[35S]‐GTPγS assay Emax [%] (95% CI)” value ([7]; relative to CP‐55940, cell without footnote mark, EC50 of the same line from ref Gamage et al. [40])?
Answer: Its value is 69.42 (62.6–76.2) %.

Question: Which Concentration in serum [1, 8] does the source give for `CCCCCn1nc(C(=O)c2cccc3ccccc23)c2ccccc21` [THJ-018] here?
Answer: The Concentration in serum was under 0.1 ng/mL.

Question: For `O=C(c1cccc2ccccc12)c1nn(CCCCCF)c2ccccc12` [THJ-2201], which Concentration in serum [1, 8] is on record?
Answer: The Concentration in serum was under 0.1 ng/mL.
